Values of other authors in patent publication US20090136558A1, “Anti-Restenosis Coatings and Uses Thereof” (VASOTECH, INC., priority 2004, published 2009).

Conditions: through specific binding to individual binding proteins

## CO[C@H]1C[C@@H]2CC[C@@H](C)[C@@](O)(O2)C(=O)C(=O)N2CCCC[C@H]2C(=O)O[C@H]([C@H](C)C[C@@H]2CC[C@@H](O)[C@H](OC)C2)CC(=O)[C@H](C)/C=C(\C)[C@@H](O)[C@@H](OC)C(=O)[C@H](C)C[C@H](C)/C=C/C=C/C=C/1C [sirolimus, Sirolimus]
  retention in blood vessel wall after releasing from stent: retained well in blood vessel wall for up to three days
